Data as given in PMC9006954, “Computer-Based Immunoinformatic Analysis to Predict Candidate T-Cell Epitopes for SARS-CoV-2 Vaccine Design” (Frontiers in Immunology, 2022).
Where no end group is shown, it is not given here.

Target: T1, HLA-A*11:01 protein (Homo sapiens, UniProt P04439, A114D/D185E/E176A/F33Y/L180Q/S129P/T187R)
T1 construct: biotin (biotinylated)
Test: Bio-Layer Interferometry (BLI) affinity test, Octet R8
Conditions: Octet R8, SSA sensors, peptides 100-3.125 µM in PBST (PBS+0.02%Tween20+1% DMSO), balance, binding, dissociation 60 s each

Row | Sequence | Kd [µM] | KD
1 | KCYGVSPTK [reference compound] | 23.5 | 
2 | SQCVNLTTR [reference compound] |  | Non-binding
3 | FSTFKCYGV [reference compound] | 29.1 | 
4 | GVSPTKLNDL [reference compound] | 656 | 
